Laboratory results published in ChEMBL document CHEMBL4507290 (2021).

What was measured:
[1] = biological target: Mitogen-activated protein kinase kinase kinase 13 (Homo sapiens) (UniProt O43283); settings: Compound concentration 1000.0 nM
[2] = biological target: Serine/threonine-protein kinase Nek10 (Homo sapiens) (UniProt Q6ZWH5); settings: Compound concentration 1000.0 nM
[3] = biological target: Phosphatidylinositol 3-kinase C2 domain-containing subunit gamma (Homo sapiens) (UniProt O75747); settings: Compound concentration 1000.0 nM
[4] = biological target: Serine/threonine-protein kinase WNK2 (Homo sapiens) (UniProt Q9Y3S1); settings: Compound concentration 1000.0 nM
[5] = biological target: Muscle, skeletal receptor tyrosine-protein kinase (Homo sapiens) (UniProt O15146); settings: Compound concentration 1000.0 nM
[6] = biological target: Interleukin-1 receptor-associated kinase 3 (Homo sapiens) (UniProt Q9Y616); settings: Compound concentration 1000.0 nM
Chain of Interleukin-1 receptor-associated kinase 3 (Homo sapiens) (Q9Y616 whole entry): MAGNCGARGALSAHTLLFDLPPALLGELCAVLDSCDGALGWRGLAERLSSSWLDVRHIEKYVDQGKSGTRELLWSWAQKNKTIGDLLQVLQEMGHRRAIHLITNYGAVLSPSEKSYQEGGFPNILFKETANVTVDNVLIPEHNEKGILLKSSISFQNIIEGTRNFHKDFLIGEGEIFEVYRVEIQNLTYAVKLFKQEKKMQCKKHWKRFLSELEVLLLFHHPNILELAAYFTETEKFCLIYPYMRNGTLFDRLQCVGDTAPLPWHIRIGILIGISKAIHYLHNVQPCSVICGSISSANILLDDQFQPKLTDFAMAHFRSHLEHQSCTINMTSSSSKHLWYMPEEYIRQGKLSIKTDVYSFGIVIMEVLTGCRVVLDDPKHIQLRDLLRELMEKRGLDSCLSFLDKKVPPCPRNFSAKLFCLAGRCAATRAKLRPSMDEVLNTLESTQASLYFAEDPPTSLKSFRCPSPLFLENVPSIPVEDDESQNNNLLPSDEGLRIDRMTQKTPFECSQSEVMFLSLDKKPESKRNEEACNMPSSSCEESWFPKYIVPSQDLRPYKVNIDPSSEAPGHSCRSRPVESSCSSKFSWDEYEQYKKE

[7] = biological target: Mitogen-activated protein kinase kinase kinase kinase 1 (Homo sapiens) (UniProt Q92918); settings: Compound concentration 1000.0 nM
Chain of Mitogen-activated protein kinase kinase kinase kinase 1 (Homo sapiens) (Q92918 whole entry, looked up): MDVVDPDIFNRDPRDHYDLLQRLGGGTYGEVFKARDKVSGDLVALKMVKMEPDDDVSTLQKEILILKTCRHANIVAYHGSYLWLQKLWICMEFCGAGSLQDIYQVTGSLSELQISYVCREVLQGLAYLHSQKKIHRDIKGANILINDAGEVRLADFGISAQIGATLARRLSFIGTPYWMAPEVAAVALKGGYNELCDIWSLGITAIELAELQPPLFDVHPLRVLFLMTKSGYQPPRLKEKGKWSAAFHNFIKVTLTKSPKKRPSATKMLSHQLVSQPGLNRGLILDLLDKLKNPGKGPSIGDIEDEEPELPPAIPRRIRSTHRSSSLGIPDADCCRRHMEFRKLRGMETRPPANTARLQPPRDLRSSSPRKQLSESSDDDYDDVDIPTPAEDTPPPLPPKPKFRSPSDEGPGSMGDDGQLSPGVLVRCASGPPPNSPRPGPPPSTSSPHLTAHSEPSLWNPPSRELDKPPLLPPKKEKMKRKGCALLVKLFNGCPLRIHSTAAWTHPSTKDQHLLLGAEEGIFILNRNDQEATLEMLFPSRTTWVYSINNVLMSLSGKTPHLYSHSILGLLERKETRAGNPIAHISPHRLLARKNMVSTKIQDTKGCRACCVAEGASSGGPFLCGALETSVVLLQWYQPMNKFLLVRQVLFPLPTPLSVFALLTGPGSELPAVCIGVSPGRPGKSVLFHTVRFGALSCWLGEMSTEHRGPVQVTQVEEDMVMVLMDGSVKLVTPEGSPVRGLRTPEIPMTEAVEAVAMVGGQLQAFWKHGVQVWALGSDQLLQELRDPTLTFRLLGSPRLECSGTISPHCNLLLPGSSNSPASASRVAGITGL

[8] = test system: Proto-oncogene tyrosine-protein kinase receptor Ret (Homo sapiens), P07949 [V804M]; settings: Compound concentration 1000.0 nM
[9] = biological target: Interleukin-1 receptor-associated kinase 4 (Homo sapiens) (UniProt Q9NWZ3); settings: Compound concentration 1000.0 nM
[10] = biological target: Serine/threonine-protein kinase WNK3 (Homo sapiens) (UniProt Q9BYP7); settings: Compound concentration 1000.0 nM
[11] = biological target: Macrophage colony-stimulating factor 1 receptor (Homo sapiens) (UniProt P07333); settings: Compound concentration 1000.0 nM
[12] = biological target: Ribosomal protein S6 kinase alpha-3 (Homo sapiens) (UniProt P51812); settings: Compound concentration 1000.0 nM
[13] = biological target: Tyrosine-protein kinase FRK (Homo sapiens) (UniProt P42685); settings: Compound concentration 1000.0 nM
[14] = biological target: Serine/threonine-protein kinase Nek11 (Homo sapiens) (UniProt Q8NG66); settings: Compound concentration 1000.0 nM
[15] = biological target: Tyrosine-protein kinase JAK1 (Homo sapiens) (UniProt P23458); settings: Compound concentration 1000.0 nM
[16] = biological target: Hormonally up-regulated neu tumor-associated kinase (Homo sapiens) (UniProt P57058); settings: Compound concentration 1000.0 nM
[17] = biological target: BMP-2-inducible protein kinase (Homo sapiens) (UniProt Q9NSY1); settings: Compound concentration 1000.0 nM
[18] = biological target: Rho-associated protein kinase 2 (Homo sapiens) (UniProt O75116); settings: Compound concentration 1000.0 nM
[19] = test system: Mast/stem cell growth factor receptor Kit (Homo sapiens), P10721 [A829P]; settings: Compound concentration 1000.0 nM
[20] = biological target: 5-hydroxytryptamine receptor 1D (Homo sapiens) (UniProt P28221); settings: Compound concentration 10.0 uM
[21] = biological target: Serine/threonine-protein kinase 3 (Homo sapiens) (UniProt Q13188); settings: Compound concentration 1000.0 nM
[22] = biological target: Protein-tyrosine kinase 2-beta (Homo sapiens) (UniProt Q14289); settings: Compound concentration 1000.0 nM
[23] = test system: ALK tyrosine kinase receptor (Homo sapiens), Q9UM73 [L1196M]; settings: Compound concentration 1000.0 nM
[24] = biological target: Platelet-derived growth factor receptor alpha (Homo sapiens) (UniProt P16234); settings: Compound concentration 1000.0 nM
[25] = biological target: Non-receptor tyrosine-protein kinase TYK2 (Homo sapiens) (UniProt P29597); settings: Compound concentration 1000.0 nM
Chain of Non-receptor tyrosine-protein kinase TYK2 (Homo sapiens) (P29597 whole entry): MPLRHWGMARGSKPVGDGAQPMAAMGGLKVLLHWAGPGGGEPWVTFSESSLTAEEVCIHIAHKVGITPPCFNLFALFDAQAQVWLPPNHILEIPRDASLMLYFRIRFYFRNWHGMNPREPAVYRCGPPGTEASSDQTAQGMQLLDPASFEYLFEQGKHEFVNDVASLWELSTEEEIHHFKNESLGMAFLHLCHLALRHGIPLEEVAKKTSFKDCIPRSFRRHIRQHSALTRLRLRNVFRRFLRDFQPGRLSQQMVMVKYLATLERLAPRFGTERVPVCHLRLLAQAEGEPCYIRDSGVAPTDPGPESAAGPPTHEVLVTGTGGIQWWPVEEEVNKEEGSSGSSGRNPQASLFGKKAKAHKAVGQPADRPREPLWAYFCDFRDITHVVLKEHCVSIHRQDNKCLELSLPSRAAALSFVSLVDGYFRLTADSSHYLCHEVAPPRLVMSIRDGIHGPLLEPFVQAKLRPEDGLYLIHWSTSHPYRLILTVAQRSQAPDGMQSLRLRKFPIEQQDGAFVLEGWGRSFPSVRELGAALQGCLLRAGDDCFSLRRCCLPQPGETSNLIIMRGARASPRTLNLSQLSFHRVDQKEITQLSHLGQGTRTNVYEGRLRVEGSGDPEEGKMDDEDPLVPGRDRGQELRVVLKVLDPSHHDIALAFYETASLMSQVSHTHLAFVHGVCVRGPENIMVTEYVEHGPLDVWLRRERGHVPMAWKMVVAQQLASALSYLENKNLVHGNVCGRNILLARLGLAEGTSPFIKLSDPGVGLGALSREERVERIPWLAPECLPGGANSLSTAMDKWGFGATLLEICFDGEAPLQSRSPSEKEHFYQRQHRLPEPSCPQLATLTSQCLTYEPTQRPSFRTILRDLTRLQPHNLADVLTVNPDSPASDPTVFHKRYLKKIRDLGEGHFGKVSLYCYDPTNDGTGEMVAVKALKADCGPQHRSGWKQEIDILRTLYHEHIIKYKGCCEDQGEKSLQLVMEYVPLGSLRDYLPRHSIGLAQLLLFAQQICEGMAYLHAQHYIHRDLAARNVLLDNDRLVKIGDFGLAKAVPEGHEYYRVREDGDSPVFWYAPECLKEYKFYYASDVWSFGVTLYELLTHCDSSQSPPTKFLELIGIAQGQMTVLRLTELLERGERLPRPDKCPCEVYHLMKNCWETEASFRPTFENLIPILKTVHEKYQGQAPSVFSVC

[26] = biological target: Receptor-type tyrosine-protein kinase FLT3 (Homo sapiens) (UniProt P36888); settings: Compound concentration 1000.0 nM
Chain of Receptor-type tyrosine-protein kinase FLT3 (Homo sapiens) (P36888 whole entry): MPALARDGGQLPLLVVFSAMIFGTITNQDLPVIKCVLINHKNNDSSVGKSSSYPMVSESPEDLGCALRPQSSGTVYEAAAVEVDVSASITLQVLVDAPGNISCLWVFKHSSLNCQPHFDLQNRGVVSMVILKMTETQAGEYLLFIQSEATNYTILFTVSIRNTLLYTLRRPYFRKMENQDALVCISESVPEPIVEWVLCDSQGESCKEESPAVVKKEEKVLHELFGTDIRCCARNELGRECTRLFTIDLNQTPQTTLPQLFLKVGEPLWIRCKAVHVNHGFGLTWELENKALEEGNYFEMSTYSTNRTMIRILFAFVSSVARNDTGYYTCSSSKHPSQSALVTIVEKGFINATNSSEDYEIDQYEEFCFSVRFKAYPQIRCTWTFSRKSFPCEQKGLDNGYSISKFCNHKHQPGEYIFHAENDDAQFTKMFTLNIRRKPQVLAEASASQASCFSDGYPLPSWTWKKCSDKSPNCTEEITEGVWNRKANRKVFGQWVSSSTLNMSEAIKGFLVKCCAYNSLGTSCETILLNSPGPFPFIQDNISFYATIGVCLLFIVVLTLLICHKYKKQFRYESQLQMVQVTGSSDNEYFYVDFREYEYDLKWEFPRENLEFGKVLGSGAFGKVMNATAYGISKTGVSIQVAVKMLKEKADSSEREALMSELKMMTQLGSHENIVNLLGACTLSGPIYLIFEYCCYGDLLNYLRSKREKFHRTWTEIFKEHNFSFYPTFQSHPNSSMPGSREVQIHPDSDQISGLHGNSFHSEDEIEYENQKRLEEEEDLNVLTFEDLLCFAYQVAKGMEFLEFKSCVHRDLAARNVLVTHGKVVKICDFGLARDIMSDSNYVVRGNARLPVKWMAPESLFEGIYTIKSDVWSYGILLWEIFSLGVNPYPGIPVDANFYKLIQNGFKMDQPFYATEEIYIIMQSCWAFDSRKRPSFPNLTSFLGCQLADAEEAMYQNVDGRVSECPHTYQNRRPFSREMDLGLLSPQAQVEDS

[27] = biological target: Serine/threonine-protein kinase D2 (Homo sapiens) (UniProt Q9BZL6); settings: Compound concentration 1000.0 nM
[28] = biological target: D(4) dopamine receptor (Homo sapiens) (UniProt P21917); settings: Compound concentration 10.0 uM
Chain of D(4) dopamine receptor (Homo sapiens) (P21917 whole entry): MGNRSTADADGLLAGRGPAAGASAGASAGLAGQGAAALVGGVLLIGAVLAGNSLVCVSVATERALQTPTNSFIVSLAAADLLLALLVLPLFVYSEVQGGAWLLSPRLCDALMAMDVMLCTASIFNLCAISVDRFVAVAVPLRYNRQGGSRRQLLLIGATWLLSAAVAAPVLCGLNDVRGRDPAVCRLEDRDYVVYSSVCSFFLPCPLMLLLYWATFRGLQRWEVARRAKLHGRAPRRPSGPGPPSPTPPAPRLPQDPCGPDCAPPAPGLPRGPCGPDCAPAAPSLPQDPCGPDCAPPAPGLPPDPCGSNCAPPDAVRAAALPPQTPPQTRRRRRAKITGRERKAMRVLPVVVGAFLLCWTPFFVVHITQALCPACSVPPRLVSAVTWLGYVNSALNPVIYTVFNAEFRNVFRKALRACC

[29] = test system: Mast/stem cell growth factor receptor Kit (Homo sapiens), P10721 [V559D]; settings: Compound concentration 1000.0 nM
[30] = biological target: Serine/threonine-protein kinase PAK 6 (Homo sapiens) (UniProt Q9NQU5); settings: Compound concentration 1000.0 nM
[31] = biological target: Serine/threonine-protein kinase MARK2 (Homo sapiens) (UniProt Q7KZI7); settings: Compound concentration 1000.0 nM
[32] = biological target: Serine/threonine-protein kinase pim-1 (Homo sapiens) (UniProt P11309); settings: Compound concentration 1000.0 nM
[33] = biological target: Receptor-type tyrosine-protein kinase FLT3 (Homo sapiens) (UniProt P36888); settings: Compound concentration 1000.0 nM; remark: listed apart in the source
[34] = biological target: Dual specificity tyrosine-phosphorylation-regulated kinase 1A (Homo sapiens) (UniProt Q13627); settings: Compound concentration 1000.0 nM
[35] = biological target: Homeodomain-interacting protein kinase 4 (Homo sapiens) (UniProt Q8NE63); settings: Compound concentration 1000.0 nM
[36] = test system: Epidermal growth factor receptor (Homo sapiens), P00533 [T790M]; settings: Compound concentration 1000.0 nM
[37] = biological target: Muscarinic acetylcholine receptor M1 (Homo sapiens) (UniProt P11229); settings: Compound concentration 10.0 uM
[38] = biological target: Tyrosine-protein kinase BTK (Homo sapiens) (UniProt Q06187); settings: Compound concentration 1000.0 nM
[39] = biological target: Serine/threonine-protein kinase ULK1 (Homo sapiens) (UniProt O75385); settings: Compound concentration 1000.0 nM
[40] = biological target: Dual specificity mitogen-activated protein kinase kinase 4 (Homo sapiens) (UniProt P45985); settings: Compound concentration 1000.0 nM
[41] = biological target: 1-phosphatidylinositol 3-phosphate 5-kinase (Homo sapiens) (UniProt Q9Y2I7); settings: Compound concentration 1000.0 nM
[42] = biological target: RAC-alpha serine/threonine-protein kinase (Homo sapiens) (UniProt P31749); settings: Compound concentration 1000.0 nM
[43] = biological target: MAP/microtubule affinity-regulating kinase 3 (Homo sapiens) (UniProt P27448); settings: Compound concentration 1000.0 nM
[44] = biological target: Mitogen-activated protein kinase kinase kinase 15 (Homo sapiens) (UniProt Q6ZN16); settings: Compound concentration 1000.0 nM
[45] = biological target: Mast/stem cell growth factor receptor Kit (Homo sapiens) (UniProt P10721); settings: Compound concentration 1000.0 nM

Chain of Mitogen-activated protein kinase kinase kinase 13 (Homo sapiens) (O43283 whole entry): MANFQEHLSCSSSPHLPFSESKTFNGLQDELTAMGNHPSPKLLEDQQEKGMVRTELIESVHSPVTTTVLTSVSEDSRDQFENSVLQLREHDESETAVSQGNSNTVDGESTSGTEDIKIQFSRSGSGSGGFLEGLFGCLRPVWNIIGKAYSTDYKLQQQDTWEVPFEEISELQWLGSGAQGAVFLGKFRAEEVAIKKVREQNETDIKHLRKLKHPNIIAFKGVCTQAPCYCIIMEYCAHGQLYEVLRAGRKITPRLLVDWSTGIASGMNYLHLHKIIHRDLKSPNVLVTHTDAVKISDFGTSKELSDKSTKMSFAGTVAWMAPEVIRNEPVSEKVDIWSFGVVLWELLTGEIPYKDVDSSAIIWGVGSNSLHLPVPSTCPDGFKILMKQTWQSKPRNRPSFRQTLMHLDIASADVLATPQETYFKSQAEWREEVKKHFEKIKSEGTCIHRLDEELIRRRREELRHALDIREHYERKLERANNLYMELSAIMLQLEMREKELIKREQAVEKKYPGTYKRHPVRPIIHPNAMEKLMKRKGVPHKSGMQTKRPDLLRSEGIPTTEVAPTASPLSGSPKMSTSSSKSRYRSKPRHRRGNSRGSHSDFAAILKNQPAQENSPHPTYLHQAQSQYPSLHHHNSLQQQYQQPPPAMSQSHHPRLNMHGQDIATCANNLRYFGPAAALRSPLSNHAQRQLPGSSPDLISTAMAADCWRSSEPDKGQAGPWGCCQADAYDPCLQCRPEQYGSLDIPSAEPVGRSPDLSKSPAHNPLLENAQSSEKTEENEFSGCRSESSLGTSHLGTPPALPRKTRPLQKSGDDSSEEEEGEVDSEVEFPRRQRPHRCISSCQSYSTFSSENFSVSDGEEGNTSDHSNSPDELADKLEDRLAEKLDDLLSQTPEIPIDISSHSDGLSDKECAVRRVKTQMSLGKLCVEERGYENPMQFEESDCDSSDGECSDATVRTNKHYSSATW

CN([C@@H]1CCc2c(CC(=O)O)c3cc(S(C)(=O)=O)ccc3n2C1)S(=O)(=O)c1ccc(F)cc1
inactive: residual activity [1] 100% | residual activity [2] 91% | residual activity [3] 82% | residual activity [4] 80% | residual activity [5] 100% | residual activity [6] 100% | residual activity [7] 100% | residual activity [8] 100% | residual activity [9] 95% | residual activity [10] 83% | residual activity [11] 100% | residual activity [12] 80% | residual activity [13] 100% | residual activity [14] 100% | residual activity [15] 100% | residual activity [16] 100% | residual activity [17] 98% | residual activity [18] 100% | residual activity [19] 100% | inhibition [20] 0.539% | residual activity [21] 98% | residual activity [22] 100% | residual activity [23] 89% | residual activity [24] 100% | residual activity [25] 83% | residual activity [26] 100% | residual activity [27] 100% | inhibition [28] 2.8% | residual activity [29] 92% | residual activity [30] 100% | residual activity [31] 100% | residual activity [32] 100% | residual activity [33] 100% | residual activity [34] 81% | residual activity [35] 100% | residual activity [36] 100% | inhibition [37] -1.48% | residual activity [38] 90% | residual activity [39] 92% | residual activity [40] 75% | residual activity [41] 97% | residual activity [42] 100% | residual activity [43] 100% | residual activity [44] 93% | residual activity [45] 86%

CN([C@@H]1CCc2c(CC(=O)O)c3ccccc3n2C1)S(=O)(=O)c1ccc(F)cc1 [MK-7246]
inactive: residual activity [1] 100% | residual activity [2] 85% | residual activity [3] 95% | residual activity [4] 92% | residual activity [5] 97% | residual activity [6] 100% | residual activity [7] 100% | residual activity [8] 98% | residual activity [9] 93% | residual activity [10] 86% | residual activity [11] 100% | residual activity [12] 100% | residual activity [13] 100% | residual activity [14] 100% | residual activity [15] 100% | residual activity [16] 99% | residual activity [17] 100% | residual activity [18] 100% | residual activity [19] 100% | inhibition [20] -6.38% | residual activity [21] 100% | residual activity [22] 100% | residual activity [23] 74% | residual activity [24] 100% | residual activity [25] 100% | residual activity [26] 100% | residual activity [27] 100% | inhibition [28] 3.14% | residual activity [29] 100% | residual activity [30] 100% | residual activity [31] 100% | residual activity [32] 96% | residual activity [33] 100% | residual activity [34] 69% | residual activity [35] 100% | residual activity [36] 100% | inhibition [37] 2.42% | residual activity [38] 86% | residual activity [39] 96% | residual activity [40] 100% | residual activity [41] 100% | residual activity [42] 100% | residual activity [43] 100% | residual activity [44] 100% | residual activity [45] 100%
